Each structure is given as a SMILES string. Like-named read-outs stand apart in the source and are kept apart here. Some results are limits rather than exact numbers.

What all share (type): cell-based
Experiment [1] deals with wide-type HIV-1 (strain IIIB). As to the kind of experiment: Anti-HIV-1 activity in MT-4 cells (MTT method), wild-type. Here is the method:
(§1) Selected compounds were screened for inhibitory activity against HIV-1 using MTT method as describe previously by Christophe. Pannecouque et al. Nat. Protoc. 3 (2008) 427-434, and Rudi Pauwels et al. J. Virol. Methods 20 (1988) 309-321. Briefly, MT-4 cells infected with HIV-1 can only survive for 5 to 7 days without any treatment, but when HIV-1 inhibitors were added, they can protect MT-4 cell from cytopathic. Serial solution of compounds was added to MT-4 cells after infected with HIV-1, MTT method was used to detect the survival rate after culture for 5 to 7 days. EC50 value was defined as compound concentration required to achieve 50% protection of MT-4 cells against HIV-1-induced cytopathic effect. In vitro anti-HIV-1 assay was supported by Rega Institute for Medical Research.
(§2) • (1) MT-4 cells infected with HIV-1 viral strains (IIIB, L100I, K103N, Y181C, Y188L, E138K, F227L/V106A, Y181C/K103N) were provided by Rega Institute for Medical Research, Katholieke Universiteit Leuven, Belgium. • (2) MTT and formazan: sigma Chemical Co. • (3) Preparation of compounds: Stock solutions (10×final concentration) of test compounds is diluted with double distilled water for 5 folds and 5 concentrations of one compound are prepared. • (4) Reference drugs: Nevirapine (NVP), Efavirenz (EFV), Etravirine (ETV), Rilpivirine (RPV) and Azidothymidine (AZT). • (5) Method (MTT method): Serial five-fold dilutions of test compounds were added to cultured MT-4 cells infected with HIV-1, after 5 to 7 days, MTT was added and cultured for a few hours. Medium was removed and lysate was added followed by formazan, OD value was determined in 690 nm and 540 nm by microplate reader, and EC50 value was calculated. 2. Method
(§3) The MTT method was described briefly as follows: 96-well plastic microtiter trays were filled with 100 μL of complete medium. Subsequently, serial of tested compounds was added (25 μL) to two series of triplicate wells so as to allow simultaneous evaluation of their effects on HIV- and mock infected cells. 50 μL of 1×10^4 cells/mL MT-4 cells were added. After cultured for 5 days at 37° C. in humidified atmosphere in the presence of 5% CO2, MTT was added and cultured for another 2 h, then medium was removed and 100 μL isopropanol solution was added to lyse the cells. Formazan crystals were added and vibrated platform shaker for 10 min to solubilize the formazan crystals. Absorbances at 690 nm and 540 nm were read by using spectrophotometrically. EC50 was defined as the concentration achieving 50% protection from the cytopathic effect of the virus in infected cells.
(§4) Selected compounds prepared as described above were assayed in MT-4 cells infected with wide-type IIIB, L100I, K103N, Y181C, Y188L, E138K or double mutant RES056 (Y181C/K103N) and F227L/V106A HIV-1 strains. Nevirapine, Efavirenz, Etravirine, Rilpivirine and Azidothymidine were selected as reference drugs. The results were listed below as EC50 value (nM)
In general terms: Formazan colour is commonly taken as a measure of viable cells.

For experiment [2], the system named is HIV-1 L100I mutant strain. As to the kind of experiment: Anti-HIV-1 activity in MT-4 cells (MTT method), L100I. The conditions noted are these: for EC50: Human immunodeficiency virus 1, MT4, read-out: EC50 (nM) L100I. The method, then:
as §1, §2, §3, §4

Experiment [3] has as its system HIV-1 K103N mutant strain. As to the kind of experiment: Anti-HIV-1 activity in MT-4 cells (MTT method), K103N. Conditions: for EC50: Human immunodeficiency virus 1, MT4, read-out: EC50 (nM) K103N. The method, then:
as §1, §2, §3, §4

Experiment [4] has as its system HIV-1 Y181C mutant strain. As to the kind of experiment: Anti-HIV-1 activity in MT-4 cells (MTT method), Y181C. The conditions noted are these: for EC50: Human immunodeficiency virus 1, MT4, read-out: EC50 (nM) Y181C. Here is the method: as §1, §2, §3, §4
The subject of experiment [5] is HIV-1 Y188L mutant strain. As to the kind of experiment: Anti-HIV-1 activity in MT-4 cells (MTT method), Y188L. Conditions: for EC50: Human immunodeficiency virus 1, MT4, read-out: EC50 (nM) Y188L. The method, then: as §1, §2, §3, §4
Experiment [6] relates to HIV-1 E138K mutant strain. As to the kind of experiment: Anti-HIV-1 activity in MT-4 cells (MTT method), E138K. Conditions: Human immunodeficiency virus 1, MT4, read-out: EC50 (nM) E138K. Here is the method: as §1, §2, §3, §4
Experiment [7] concerns HIV-1 F227L/V106A double mutant strain. The experiment in a line: Anti-HIV-1 activity in MT-4 cells (MTT method), F227L/V106A. The conditions noted are these: for EC50: Human immunodeficiency virus 1, MT4, read-out: EC50 (nM) F227L/V106A. Here is the method:
as §1, §2, §3, §4

For experiment [8], the system named is HIV-1 double mutant RES056 (Y181C/K103N). As to the kind of experiment: Anti-HIV-1 activity in MT-4 cells (MTT method), RES056. The conditions noted are these: for EC50: Human immunodeficiency virus 1, MT4, read-out: EC50 (nM) Y181C/K103N. The method, then: as §1, §2, §3, §4
The mark [9] stands for this setting: Human immunodeficiency virus 1, IIIB, MT4, read-out: EC50 (nM) wt.

Turning to `Cc1cc(C#N)cc(C)c1Oc1nc(NC2CCN(Cc3cccc(C#N)c3)CC2)nc2c1SCCC2` [IIA-1-6, 4-((2-((1-(3-cyanobenzyl)piperidin-4-yl)amino)-7,8-dihydro-6H-thiopyrano[3,2-d]pyrimidin-4-yl)oxy)-3,5-dimethylbenzonitrile], the EC50 is less than 10 nM in experiment [1] (setting [9]); more than 100 nM in experiment [2]; 10 to 100 nM in experiment [3]; 10 to 100 nM in experiment [4]; 10 to 100 nM in experiment [5]; 10 to 100 nM in experiment [6]. The EC50 in experiment [7] and in experiment [8] was more than 100 nM throughout.

As for `Cc1cc(C#N)cc(C)c1Oc1nc(Nc2ccc(C#N)cc2)nc(N)c1Br` [ETV, Etravirine, reference compound], the EC50 in experiment [1] (setting [9]) was less than 10 nM; in experiment [2] it was less than 10 nM; in experiment [3] it was less than 10 nM; in experiment [4], 10 to 100 nM; in experiment [5] it was 10 to 100 nM; in experiment [6], 10 to 100 nM. Besides, the EC50 in experiment [7] and in experiment [8] was 10 to 100 nM throughout.

Consider `Cc1cc(C#N)cc(C)c1Oc1nc(NC2CCN(Cc3cccc(C(N)=O)c3)CC2)nc2c1SCCC2` [IIA-1-9, 3-((4-((4-(4-cyano-2,6-dimethylphenoxy)-7,8-dihydro-6H-thiopyrano[3,2-d]pyrimidin-2-yl)amino)piperidin-1-yl)methyl)benzamide], for which the EC50 in experiment [1] (setting [9]) was less than 10 nM; in experiment [2], 10 to 100 nM; in experiment [3] it was 10 to 100 nM; in experiment [4], 10 to 100 nM; in experiment [5], 10 to 100 nM; in experiment [6], 10 to 100 nM. Further, the EC50 in experiment [7] and in experiment [8] was more than 100 nM in each case.

For the compound `Cc1cc(C#N)cc(C)c1Oc1nc(NC2CCN(c3cccc(C(N)=O)c3)CC2)nc2c1SCCC2` [IIC-1-2, 3-(4-((4-(4-cyano-2,6-dimethylphenoxy)-7,8-dihydro-6H-thiopyrano[3,2-d]pyrimidin-2-yl)amino)piperidin-1-yl)benzamide], the EC50 was less than 10 nM in experiment [1] (setting [9]); 10 to 100 nM in experiment [2]; less than 10 nM in experiment [3]; less than 10 nM in experiment [4]; less than 10 nM in experiment [5]; 10 to 100 nM in experiment [6]. Besides, the figures for the EC50 in experiment [7] and in experiment [8] were more than 100 nM and 10 to 100 nM, respectively.

On to `CCOC(=O)c1ccc(CN2CCC(Nc3nc4c(c(Oc5c(C)cc(C#N)cc5C)n3)SCCC4)CC2)cc1` [IIA-1-10, ethyl 4-((4-((4-(4-cyano-2,6-dimethylphenoxy)-7,8-dihydro-6H-thiopyrano[3,2-d]pyrimidin-2-yl)amino)piperidin-1-yl)methyl)benzoate], for which the EC50 was 10 to 100 nM in experiment [1] (setting [9]); more than 100 nM in experiment [2]; 10 to 100 nM in experiment [3]; more than 100 nM in experiment [4]; more than 100 nM in experiment [5]; more than 100 nM in experiment [6]. The EC50 in experiment [7] and in experiment [8] was more than 100 nM throughout.

As for `Cc1cc(/C=C/C#N)cc(C)c1Oc1nc(NC2CCN(Cc3ccc(S(N)(=O)=O)cc3)CC2)nc2c1SCCC2` [IIA-1-3, (E)-4-((4-((4-(4-(2-cyanovinyl)-2,6-dimethylphenoxy)-7,8-dihydro-6H-thiopyrano[3,2-d]pyrimidin-2-yl)amino)piperidin-1-yl)methyl)benzenesulfonamide], the EC50 in experiment [1] (setting [9]) is less than 10 nM; in experiment [2], less than 10 nM; in experiment [3] it was less than 10 nM; in experiment [4], less than 10 nM; in experiment [5], 10 to 100 nM; in experiment [6] it was 10 to 100 nM. Besides, the EC50 is less than 10 nM in experiment [7] and 10 to 100 nM in experiment [8]. Further, the “fold more potent than ETV against L100I” value in experiment [2] (L100I, relative to ETV) is 2 fold. Moreover, the “Activity against K103N compared with ETV” value in experiment [3] (K103N, relative to ETV) is listed as “comparable”. The “fold more potent than ETV against Y181C” value in experiment [4] (Y181C, relative to ETV) is listed as 2 fold. Also, the “Activity against Y188L compared with ETV” value in experiment [5] (Y188L, relative to ETV) was “comparable”. Besides, the “fold more potent than ETV against F227L/V106A” value in experiment [7] (F227L/V106A, relative to ETV) is given as 2 fold. Further, in experiment [8] (Y181C/K103N, relative to ETV), the “fold more potent than ETV against Y181C/K103N” value is given as 2 fold.

In the case of `Cc1cc(C#N)cc(C)c1Oc1nc(NC2CCN(Cc3cccc(S(N)(=O)=O)c3)CC2)nc2c1SCCC2` [IIA-1-4, 3-((4-((4-(4-cyano-2,6-dimethylphenoxy)-7,8-dihydro-6H-thiopyrano[3,2-d]pyrimidin-2-yl)amino)piperidin-1-yl)methyl)benzenesulfonamide], the EC50 was less than 10 nM in experiment [1] (setting [9]); more than 100 nM in experiment [2]; 10 to 100 nM in experiment [3]; 10 to 100 nM in experiment [4]; 10 to 100 nM in experiment [5]; 10 to 100 nM in experiment [6]. In addition, the results for the EC50 in experiment [7] and in experiment [8] were 10 to 100 nM and more than 100 nM, respectively.

As to `Cc1cc(/C=C/C#N)cc(C)c1Nc1ccnc(Nc2ccc(C#N)cc2)n1` [RPV, Rilpivirine, reference compound], the EC50 in experiment [1] (setting [9]) is less than 10 nM; in experiment [2], less than 10 nM; in experiment [3], less than 10 nM; in experiment [4], less than 10 nM; in experiment [5], 10 to 100 nM; in experiment [6] it was less than 10 nM. The EC50 in experiment [7] and in experiment [8] was 10 to 100 nM throughout.

For `Cc1cc(C#N)cc(C)c1Oc1nc(NC2CCN(Cc3ccc(S(N)(=O)=O)cc3)CC2)nc2c1SCCC2` [IIA-1-1, 4-((4-((4-(4-cyano-2,6-dimethylphenoxy)-7,8-dihydro-6H-thiopyrano[3,2-d]pyrimidin-2-yl)amino)piperidin-1-yl)methyl)benzenesulfonamide], the EC50 is less than 10 nM in experiment [1] (setting [9]); 10 to 100 nM in experiment [2]; less than 10 nM in experiment [3]; 10 to 100 nM in experiment [4]; less than 10 nM in experiment [5]; less than 10 nM in experiment [6]. Besides, the EC50 in experiment [7] and in experiment [8] was 10 to 100 nM in each case.

In the case of `Cc1cc(C#N)cc(C)c1Oc1nc(NC2CCN(Cc3ccc(C#N)cc3)CC2)nc2c1SCCC2` [IIA-1-5, 4-((2-((1-(4-cyanobenzyl)piperidin-4-yl)amino)-7,8-dihydro-6H-thiopyrano[3,2-d]pyrimidin-4-yl)oxy)-3,5-dimethylbenzonitrile], the EC50 in experiment [1] (setting [9]) is less than 10 nM; in experiment [2] it was 10 to 100 nM; in experiment [3], 10 to 100 nM; in experiment [4] it was 10 to 100 nM; in experiment [5] it was 10 to 100 nM; in experiment [6] it was 10 to 100 nM. Besides, the EC50 in experiment [7] and in experiment [8] was more than 100 nM in each case.

Take `Cc1ccnc2c1NC(=O)c1cccnc1N2C1CC1` [NVP, Nevirapine, reference compound]: the EC50 in experiment [1] (Human immunodeficiency virus 1, MT4, MT-4 cells, 50% protection against HIV-1-induced cytopathicity, wt (IIIB), read-out: EC50 (nM) wt) was more than 100 nM; in experiment [2], more than 100 nM; in experiment [3], more than 100 nM; in experiment [4] it was more than 100 nM; in experiment [5], more than 100 nM; in experiment [6], more than 100 nM. Moreover, the EC50 in experiment [7] and in experiment [8] was more than 100 nM throughout.

The values are drawn from US10590145B2, “Tetrahydrothiopyranopyrimidine derivatives as anti-HIV agent” (SHANDONG UNIVERSITY, priority 2016, dated 2020).
